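Assay format: 96-well plates, 48-hour exposure. Definition used: TGI = concentration required for complete inhibition of growth.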
How the values were obtained:
Assay in all cases: NCI anticancer screen, dose series, 48 h
786-0 renal = test system: 786-0 renal
A498 renal = test system: A498 renal
A549 NSCLC = test system: A549 NSCLC
ACHN renal = test system: ACHN renal
CCRF-CEM leukemia = test system: CCRF-CEM leukemia
COLO 205 colon = test system: COLO 205 colon
DLD-1 colon = test system: DLD-1 colon
DMS 273 small cell lung = test system: DMS 273 small cell lung
EKVX NSCLC = test system: EKVX NSCLC
HCC-2998 colon = test system: HCC-2998 colon
HCT-116 colon = test system: HCT-116 colon
HCT-15 colon = test system: HCT-15 colon
HL-60(TB) leukemia = test system: HL-60(TB) leukemia
HOP-18 NSCLC = test system: HOP-18 NSCLC
HOP-62 NSCLC = test system: HOP-62 NSCLC
HOP-92 NSCLC = test system: HOP-92 NSCLC
HT29 colon = test system: HT29 colon
IGROV1 ovarian = test system: IGROV1 ovarian
K-562 leukemia = test system: K-562 leukemia
KM20L2 colon = test system: KM20L2 colon
LXFL 529 NSCLC = test system: LXFL 529 NSCLC
M14 melanoma = test system: M14 melanoma
M19-MEL melanoma = test system: M19-MEL melanoma
MALME-3M melanoma = test system: MALME-3M melanoma
MOLT-4 leukemia = test system: MOLT-4 leukemia
NCI-H226 lung = test system: NCI-H226 lung
NCI-H23 lung = test system: NCI-H23 lung
NCI-H522 lung = test system: NCI-H522 lung
OVCAR-4 ovarian = test system: OVCAR-4 ovarian
OVCAR-8 ovarian = test system: OVCAR-8 ovarian
RPMI-8226 leukemia = test system: RPMI-8226 leukemia
RXF 393 renal = test system: RXF 393 renal
SF-268 CNS = test system: SF-268 CNS
SF-295 CNS = test system: SF-295 CNS
SF-539 CNS = test system: SF-539 CNS
SK-MEL-28 melanoma = test system: SK-MEL-28 melanoma
SK-MEL-5 melanoma = test system: SK-MEL-5 melanoma
SK-OV-3 ovarian = test system: SK-OV-3 ovarian
SN12C renal = test system: SN12C renal
SNB-19 CNS = test system: SNB-19 CNS
SNB-75 CNS = test system: SNB-75 CNS
SNB-78 CNS = test system: SNB-78 CNS
SR leukemia = test system: SR leukemia
SW-620 colon = test system: SW-620 colon
U251 CNS = test system: U251 CNS
UACC-257 melanoma = test system: UACC-257 melanoma
UACC-62 melanoma = test system: UACC-62 melanoma
UO-31 renal = test system: UO-31 renal
XF 498 CNS = test system: XF 498 CNS
CAKI-1 renal = test system: CAKI-1 renal
KM12 colon = test system: KM12 colon
LOX IMVI melanoma = test system: LOX IMVI melanoma
NCI-H460 lung = test system: NCI-H460 lung
OVCAR-3 ovarian = test system: OVCAR-3 ovarian
OVCAR-5 ovarian = test system: OVCAR-5 ovarian
SK-MEL-2 melanoma = test system: SK-MEL-2 melanoma
TK-10 renal = test system: TK-10 renal
DMS 114 small cell lung = test system: DMS 114 small cell lung

## COc1ccc2c3ccc4c(c3n(C)c2c1)C(=O)C=CC4=O
786-0 renal
  TGI: 32.9 µM
A498 renal
  TGI: > 100 µM
A549 NSCLC
  TGI: > 100 µM
ACHN renal
  TGI: 59.6 µM
CCRF-CEM leukemia
  TGI: 49.9 µM
COLO 205 colon
  TGI: > 100 µM
DLD-1 colon
  TGI: 30.2 µM
DMS 273 small cell lung
  TGI: > 100 µM
EKVX NSCLC
  TGI: > 100 µM
HCC-2998 colon
  TGI: > 100 µM
HCT-116 colon
  TGI: 48.4 µM
HCT-15 colon
  TGI: > 100 µM
HL-60(TB) leukemia
  TGI: 19.8 µM
HOP-18 NSCLC
  TGI: > 100 µM
HOP-62 NSCLC
  TGI: > 100 µM
HOP-92 NSCLC
  TGI: 32.3 µM
HT29 colon
  TGI: > 100 µM
IGROV1 ovarian
  TGI: > 100 µM
K-562 leukemia
  TGI: 26.6 µM
KM20L2 colon
  TGI: > 100 µM
LXFL 529 NSCLC
  TGI: 28.6 µM
M14 melanoma
  TGI: > 100 µM
M19-MEL melanoma
  TGI: 46.2 µM
MALME-3M melanoma
  TGI: > 100 µM
MOLT-4 leukemia
  TGI: 13.6 µM
NCI-H226 lung
  TGI: > 100 µM
NCI-H23 lung
  TGI: > 100 µM
NCI-H522 lung
  TGI: 22.4 µM
OVCAR-4 ovarian
  TGI: 92.5 µM
OVCAR-8 ovarian
  TGI: 33.2 µM
RPMI-8226 leukemia
  TGI: 48.4 µM
RXF 393 renal
  TGI: 37.5 µM
SF-268 CNS
  TGI: > 100 µM
SF-295 CNS
  TGI: > 100 µM
SF-539 CNS
  TGI: 52.8 µM
SK-MEL-28 melanoma
  TGI: > 100 µM
SK-MEL-5 melanoma
  TGI: > 100 µM
SK-OV-3 ovarian
  TGI: > 100 µM
SN12C renal
  TGI: > 100 µM
SNB-19 CNS
  TGI: > 100 µM
SNB-75 CNS
  TGI: > 100 µM
SNB-78 CNS
  TGI: > 100 µM
SR leukemia
  TGI: 22.2 µM
SW-620 colon
  TGI: 30.6 µM
U251 CNS
  TGI: > 100 µM
UACC-257 melanoma
  TGI: > 100 µM
UACC-62 melanoma
  TGI: > 100 µM
UO-31 renal
  TGI: 90.3 µM
XF 498 CNS
  TGI: 52.5 µM

## O/N=C(\C(=N/O)Nc1ccc(-c2ccc(NC(=N/O)/C(=N\O)c3ccccc3)cc2)cc1)c1ccccc1
786-0 renal
  TGI: 41.4 µM
A498 renal
  TGI: 51 µM
A549 NSCLC
  TGI: 79.1 µM
ACHN renal
  TGI: 97.2 µM
CAKI-1 renal
  TGI: 62.9 µM
CCRF-CEM leukemia
  TGI: 46.3 µM
COLO 205 colon
  TGI: 30.4 µM
DLD-1 colon
  TGI: 53.8 µM
DMS 273 small cell lung
  TGI: 36.3 µM
EKVX NSCLC
  TGI: 57.9 µM
HCC-2998 colon
  TGI: 18.7 µM
HCT-116 colon
  TGI: 34.6 µM
HCT-15 colon
  TGI: 70 µM
HL-60(TB) leukemia
  TGI: 55.6 µM
HOP-18 NSCLC
  TGI: 37.3 µM
HOP-62 NSCLC
  TGI: 30.1 µM
HOP-92 NSCLC
  TGI: 58.1 µM
HT29 colon
  TGI: 29.2 µM
IGROV1 ovarian
  TGI: 57.6 µM
K-562 leukemia
  TGI: 44 µM
KM12 colon
  TGI: 33.6 µM
KM20L2 colon
  TGI: 36.5 µM
LOX IMVI melanoma
  TGI: 29.1 µM
LXFL 529 NSCLC
  TGI: 32.2 µM
M14 melanoma
  TGI: 32.8 µM
M19-MEL melanoma
  TGI: 31.4 µM
MALME-3M melanoma
  TGI: 44.7 µM
MOLT-4 leukemia
  TGI: 41.3 µM
NCI-H226 lung
  TGI: 69.2 µM
NCI-H23 lung
  TGI: 32.1 µM
NCI-H460 lung
  TGI: 32.4 µM
NCI-H522 lung
  TGI: 33.3 µM
OVCAR-3 ovarian
  TGI: 40.2 µM
OVCAR-5 ovarian
  TGI: 27.5 µM
OVCAR-8 ovarian
  TGI: 45 µM
RPMI-8226 leukemia
  TGI: 57.9 µM
SF-268 CNS
  TGI: 69.2 µM
SF-295 CNS
  TGI: 37.4 µM
SF-539 CNS
  TGI: 35.3 µM
SK-MEL-2 melanoma
  TGI: 36.3 µM
SK-MEL-5 melanoma
  TGI: 34.8 µM
SK-OV-3 ovarian
  TGI: 33.8 µM
SN12C renal
  TGI: 97.3 µM
SNB-19 CNS
  TGI: 50.7 µM
SNB-78 CNS
  TGI: 97.4 µM
SW-620 colon
  TGI: 49.8 µM
TK-10 renal
  TGI: 82.4 µM
U251 CNS
  TGI: 60.9 µM
UACC-257 melanoma
  TGI: 80.6 µM
UACC-62 melanoma
  TGI: 35.4 µM
UO-31 renal
  TGI: 82.9 µM
XF 498 CNS
  TGI: 41.3 µM

## O=C1Cc2ccccc2N1/N=C\c1ccc([N+](=O)[O-])cc1
786-0 renal
  TGI: > 100 µM
A498 renal
  TGI: > 100 µM
A549 NSCLC
  TGI: > 100 µM
ACHN renal
  TGI: > 100 µM
CAKI-1 renal
  TGI: > 100 µM
CCRF-CEM leukemia
  TGI: > 100 µM
COLO 205 colon
  TGI: > 100 µM
DLD-1 colon
  TGI: > 100 µM
DMS 114 small cell lung
  TGI: > 100 µM
DMS 273 small cell lung
  TGI: > 100 µM
EKVX NSCLC
  TGI: > 100 µM
HCC-2998 colon
  TGI: > 100 µM
HCT-116 colon
  TGI: > 100 µM
HCT-15 colon
  TGI: > 100 µM
HL-60(TB) leukemia
  TGI: > 100 µM
HOP-18 NSCLC
  TGI: > 100 µM
HOP-62 NSCLC
  TGI: > 100 µM
HOP-92 NSCLC
  TGI: > 100 µM
HT29 colon
  TGI: > 100 µM
IGROV1 ovarian
  TGI: > 100 µM
K-562 leukemia
  TGI: > 100 µM
KM12 colon
  TGI: > 100 µM
KM20L2 colon
  TGI: > 100 µM
LOX IMVI melanoma
  TGI: > 100 µM
M14 melanoma
  TGI: > 100 µM
M19-MEL melanoma
  TGI: > 100 µM
MALME-3M melanoma
  TGI: > 100 µM
MOLT-4 leukemia
  TGI: > 100 µM
NCI-H226 lung
  TGI: > 100 µM
NCI-H23 lung
  TGI: > 100 µM
NCI-H460 lung
  TGI: > 100 µM
OVCAR-3 ovarian
  TGI: > 100 µM
OVCAR-4 ovarian
  TGI: > 100 µM
OVCAR-5 ovarian
  TGI: > 100 µM
OVCAR-8 ovarian
  TGI: > 100 µM
RPMI-8226 leukemia
  TGI: > 100 µM
SF-268 CNS
  TGI: > 100 µM
SF-295 CNS
  TGI: > 100 µM
SF-539 CNS
  TGI: > 100 µM
SK-MEL-2 melanoma
  TGI: > 100 µM
SK-MEL-28 melanoma
  TGI: > 100 µM
SK-MEL-5 melanoma
  TGI: > 100 µM
SK-OV-3 ovarian
  TGI: > 100 µM
SNB-19 CNS
  TGI: > 100 µM
SNB-75 CNS
  TGI: > 100 µM
SNB-78 CNS
  TGI: > 100 µM
SW-620 colon
  TGI: > 100 µM
TK-10 renal
  TGI: > 100 µM
U251 CNS
  TGI: > 100 µM
UACC-257 melanoma
  TGI: > 100 µM
UACC-62 melanoma
  TGI: > 100 µM
UO-31 renal
  TGI: > 100 µM
XF 498 CNS
  TGI: > 100 µM

Source: PubChem BioAssay (NCI)
